For data set [1], the system named is GABAARs. It counts as cell-based, rat. To be noted: flumazenil (10 and 100 μM shown), cultured neurons.
For data set [2], the system named is rats. As to the kind of experiment: Loss of Righting Reflex.
Data set [3] has as its system GABAARs. It is filed as cell-based, rat.
Data set [4] is described as follows: Plasma EtOH concentrations. It is filed as in vivo, rat.
Data set [5] deals with rats. The data set is described as follows: Elevated-plus maze. It is filed as in vivo, rat. To be noted: 48 hr withdrawal after EtOH 3 g/kg i.p. (E/W), vs V/W-group.
Data set [6] deals with rats. The data set is described as follows: Pentylenetetrazol. It is filed as in vivo, rat. The following applies: 48 hr withdrawal after EtOH 3 g/kg i.p. (E/W); PTZ 42 mg/kg.
The test system of data set [7] is rats. It is filed as in vivo, rat. The following applies: 20% EtOH/water (E/water-group).
The subject of data set [8] is GABAAR α4 subunit. As to the kind of experiment: Western blot of total GABAAR α4 subunit in hippocampus 48 hr after withdrawal. It is filed as in vivo, rat. The following applies: hippocampus 48 hr after EtOH 3 g/kg i.p. (E/W), compared to V/W-group.
The test system of data set [9] is GABAAR α4 subunit. It is filed as cell-based, rat. To be noted: cultured neurons 24 hrs after EtOH 60 mM, 30 min.
In data set [10] the test system is GABAARs. It is filed as in vivo, rat.
Where [11] appears, read: bath EtOH 60 mM, DGCs, naive rats.
[12] abbreviates: baseline mIPSCs, E/W: 48 hr after EtOH 5 g/kg gavage.
Setting [13] is: baseline, E/W: 48 hr after EtOH 5 g/kg gavage.
[14] abbreviates: bath EtOH 60 mM, DGCs of V/W-group rats.

Several values for one entry are separate records, joined by “and”; a condition that tells them apart may be missing. Identical values can stand only once. Like-named read-outs stand apart in the source and are kept apart here.

Regarding `CCOC(=O)c1ncn2c1CN(C)C(=O)c1cc(F)ccc1-2` [flumazenil, reference compound], the “Effect on DHM (1 μM) enhancement of Itonic and mIPSCs” value in the data set on GABAARs [1] is “inhibited the DHM enhancement on GABAAR-currents in a concentration-dependent manner”. Moreover, the “Effect on EtOH-induced LORR” value in the data set on rats [2] (flumazenil 10 mg/kg co-injected with EtOH 3 g/kg (E3+F10), vs E3-group) is “did not alter LORR”. The LORR duration in the data set with rats [2] (flumazenil 10 mg/kg with EtOH 3 g/kg and DHM 3 mg/kg (E3+D3+F10)) stood at 56.1 ± 4.6 min; in the data set on rats [2] (flumazenil 10 mg/kg with EtOH 3 g/kg and DHM 10 mg/kg (E3+D10+F10)) it was 29.3 ± 4.8 min; in the data set on rats [2] (flumazenil 20 mg/kg i.p. alone (F20)), 0 min; in the data set on rats [2] (flumazenil 30 mg/kg with EtOH 3 g/kg and DHM 3 mg/kg (E3+D3+F30)) it was 58.2 ± 3.9 min; in the data set on rats [2] (flumazenil 200 mg/kg i.p. alone (F200)), 0 min. The LORR induction entry in the data set with rats [2] (flumazenil 20, 200 mg/kg alone) was “did not induce LORR”.
`O=c1c(O)c(-c2ccc(O)c(O)c2)oc2cc(O)cc(O)c12` [quercetin, reference compound]: in the data set with GABAARs [3], the “Effect on EtOH-induced potentiation of Itonic and mIPSCs” value is given as “did not change EtOH-induced potentiation”.
On to `CCO` [EtOH], for which the “Plasma [EtOH]” value in [4] (30 min after EtOH 3 g/kg i.p. (E3)) was determined as 334.9 ± 37.8 mg/dL. The “Plasma [EtOH]” value in data set [4] (60 min after EtOH 3 g/kg i.p. (E3)) stood at 353.7 ± 35.4 mg/dL. Moreover, in data set [4] (EtOH 4 g/kg i.p. (E4)), the “Plasma [EtOH] at sampling time points (min) 5” value was 365.5 ± 7.7, the “Plasma [EtOH] at sampling time points (min) 30” value is recorded as 379.5 ± 5.9, the “Plasma [EtOH] at sampling time points (min) 60” value turned out to be 372.8 ± 5.4 and the “Plasma [EtOH] at sampling time points (min) 90” value is listed as 361.6 ± 8.2. Also, in data set [4] (EtOH 4 g/kg i.p. (E4)), the “Plasma [EtOH] at sampling time points (min) 180” value amounted to 324.6 ± 21.4. The “Plasma [EtOH] at sampling time points (min) 0” value in data set [4] (EtOH 4 g/kg i.p. (E4), 0 = 0 to 3 min) is 143.3 ± 23.4. Further, in the data set on rats [5], the “Time in open and closed arms (EPM)” value is “significantly shorter time in open arms and longer time in closed arms”. In addition, the PTZ-induced seizure duration with rats [6] amounted to 6.5 ± 1.1 min. This molecule came in with an EtOH consumption in the data set on rats [7] (beginning of the 4th week) of 7.4 ± 0.6 g/kg/day. For the same molecule, the EtOH consumption in the data set with rats [7] (end of the 2nd week) amounted to 3.9 ± 1.4 g/kg/day. Further, in the data set with GABAARs [3] (setting [11]), the Itonic is 46.9 ± 1.4 pA and 44.8 ± 2.3 pA; the “mIPSCs (area)” value was 0.64 ± 0.02 nC and 0.78 ± 0.01 nC. For the same molecule, the “Total α4 protein level” value with GABAAR α4 subunit [8] is given as 184.0 ± 26.0%. In addition, the “Increase in surface expression of GABAAR α4 protein” value with GABAAR α4 subunit [9] amounted to 1.5 fold. For the same molecule, the “mIPSC area before acute EtOH” value with GABAARs [10] (DGCs of E/W-group rats (EtOH 5 g/kg gavage, 48 hr withdrawal)) was found to be 0.70 ± 0.03 nC. In the data set with GABAARs [10] (setting [12]), the “Decay time” value worked out at 4.0 ± 0.4 ms, the “Frequency (HZ)” value worked out at 11.4 ± 0.8 HZ and the “Rise time” value stood at 0.8 ± 0.3 ms. Moreover, in the data set with GABAARs [10] (setting [13]), the “Itonic (pA)” value turned out to be 13.0 ± 1.0 pA, the “mIPSC amplitude (pA)” value came out at 38.3 ± 3.3 pA and the “mIPSC area (fC)” value is recorded as 698.0 ± 33.7 fC. Besides, the “mIPSC area with acute EtOH” value with GABAARs [10] (bath EtOH 60 mM, DGCs of E/W-group rats (EtOH 5 g/kg gavage, 48 hr withdrawal)) is recorded as 1.4 ± 0.04 nC. Further, in the data set on GABAARs [10] (setting [14]), the “Itonic with acute EtOH” value is 62.1 ± 3.3 pA and the “mIPSC area with acute EtOH” value is listed as 0.78 ± 0.05 nC. Moreover, the “Acute EtOH-induced LORR (tolerance)” value in the data set with rats [2] (48 hr withdrawal after single EtOH 3 g/kg i.p. (E/W)) was 10.8 ± 3.8 min. For the same molecule, in the data set with rats [2] (EtOH 3 g/kg i.p. alone (E3)), the LORR duration is 73.6 ± 8.0 min and 69.0 ± 11.3 min; the LORR onset came to 1.8 ± 0.2 min. Besides, the “LORR duration” value with rats [2] (EtOH 4 g/kg i.p. alone (E4)) turned out to be 112.8 ± 8.0 min. Besides, the “Additional LORR after the 30 min time point” value with rats [2] (EtOH, saline injected 30 min after EtOH) was 42 ± 9.1 min.

The values are drawn from publication PMC3292407 (The Journal of Neuroscience, 2012).
